Measured values published in publication PMC5708526, “Targeting secondary protein complexes in drug discovery: studying the druggability and chemical biology of the HSP70/BAG1 complex” (Chemical Communications (Cambridge, England), 2017).
“Also recorded” adds a separate entry of the source.

Columns and labels:
HSP72/BAG1 complex = target: T1, HSP72/BAG1 complex (Homo sapiens, UniProt P0DMV8); experiment: FP probe KD determination with BAG1; assay type: binding
T1 construct: purchased Enzo Life Sciences (BAG-1M only)
Protocol: To assess what effect the secondary HSP72/BAG1 complex had on the apparent affinity of the non-nucleotide bisaryl-ATTO-488 FP-probe 11, we carried out a similar BAG1 study. […] To confirm that the binding of BAG1 to HSP72 was not mutually exclusive, we screened the nucleotides ADP and ATP in a competition assay with bisaryl-ATTO-488 11 and HSP72 at a 50% bound fraction, with and without a saturating concentration of BAG1 (700 nM) (Fig. S7, ESI ^†). […]
mM TRIS base pH 7.4, 100 mM NaCl, 1 mM DTT, 1% (v/v) glycerol) or BAG1 replacement buffer (5 μL, 20 mM TRIS base pH 7.4, 100 mM NaCl, 1 mM DTT, 1% (v/v) glycerol) was added to the corresponding wells of the assay plate. Fluorescence polarisation values for probe and HSP72 ± BAG1 were plotted using GraphPad prism 6.
KD determination with BAG1: To each well, 5 μL containing probe molecule (20 nM in assay buffer) and BAG1 protein (1.4 μM in assay buffer) and increasing concentrations of HSP70 protein (5 μL, two-fold dilution series) were added. Fluorescence polarisation values for tracer control wells (10 nM probe in assay buffer only) were subtracted from each data point prior to data analysis. KD determination was performed using non-linear regression analysis (GraphPad Prism 6, one site–specific binding […]

HSP72 = target: T2, HSP72 (Homo sapiens, UniProt P0DMV8); experiment: FP assay binding window and Z' determination
T2 construct: made in house
From the text: As a result, the assay was not statistically robust, so could not be used in competition experiments (Z′ = 0.36).[11],[20],[21] We hypothesised that the high lipophilicity of 10 (clog P = 6.9) was causing the small binding window, either due to aggregation, even at very low concentrations, or its large hydrate volume.[22] Because the lipophilicity of the specific-ligand portion of the probe was fixed by the need for high affinity to the HSP70 target, we focused on changes to the solvent exposed fluorophore. ATTO-488, a green-shifted fluorophore that contains two sulfonic acid groups, was selected as an alternative to fluorescein (see ESI ^†), as this reduced the clog P of the bisaryl probe 11 to –3.9.[21] The binding window of ATTO-488 bisaryl FP-probe 11 measured at a fixed and apparently saturating concentration of HSP72 (5 μM), was now greater than 150 mP (Z′ = 0.63, Fig. 3A and Fig. S1, ESI ^†). […]
TRIS Tris(hydroxymethyl)aminomethane
General Information: Unless otherwise stated the aqueous assay buffer contained 50 mM TRIS base pH 7.4, 150 mM NaCl, 6 mM MgCl2, 1 mM DTT, 0.1% (wt/wt) CHAPS. The assay was conducted using 384 Plus F ProxiPlates (PerkinElmer) with a final assay volume of 10 μL. Plates were centrifuged at 1000 rpm for 1 minute prior to incubation and read using an 2103 Envision Multilable Plate Reader. Excitation and emission wavelengths used for green probes were 480 nm and 535 nm, respectively.
Fluorescence polarisation was measured in units of millipolarization (mP). All experiments were performed in triplicate, unless otherwise stated. Data were plotted and analysed using GraphPad Prism 6, graphical data represents the mean ± standard error of the mean for a single representative experiment. ATP-derived fluorescent probes (1.0 mM in aqueous) were purchased from Jena Bioscience. Human BAG-1M (10.9 μM in 20 mM TRIS base pH 7.4, 100 mM NaCl, 1 mM DTT, 1% (v/v) glycerol) was purchased from Enzo Life Sciences.
Determination of optimal probe concentration: To each well, 5 μL of HSP72 (10 µM in assay buffer) or 5 μL assay buffer and increasing concentrations of probe (5 μL, two-fold dilution series) were added. Fluorescence polarisation values for the tracer ± protein were plotted using GraphPad prism 6. […]
Z’ determination: To each well, 5 µL of probe (20 nM in assay buffer) and either 5 µL of HSP70 (in assay buffer) or 5 µL of assay buffer were added. Fluorescent polarisation values from 96 wells were used to calculate the mean and standard deviation for each data set. Z’-factors were calculated using the equation given below (sample refers to probe in the absence of protein and control refers to probe in the presence of protein). […]

T1 sequence (P0DMV8 whole entry): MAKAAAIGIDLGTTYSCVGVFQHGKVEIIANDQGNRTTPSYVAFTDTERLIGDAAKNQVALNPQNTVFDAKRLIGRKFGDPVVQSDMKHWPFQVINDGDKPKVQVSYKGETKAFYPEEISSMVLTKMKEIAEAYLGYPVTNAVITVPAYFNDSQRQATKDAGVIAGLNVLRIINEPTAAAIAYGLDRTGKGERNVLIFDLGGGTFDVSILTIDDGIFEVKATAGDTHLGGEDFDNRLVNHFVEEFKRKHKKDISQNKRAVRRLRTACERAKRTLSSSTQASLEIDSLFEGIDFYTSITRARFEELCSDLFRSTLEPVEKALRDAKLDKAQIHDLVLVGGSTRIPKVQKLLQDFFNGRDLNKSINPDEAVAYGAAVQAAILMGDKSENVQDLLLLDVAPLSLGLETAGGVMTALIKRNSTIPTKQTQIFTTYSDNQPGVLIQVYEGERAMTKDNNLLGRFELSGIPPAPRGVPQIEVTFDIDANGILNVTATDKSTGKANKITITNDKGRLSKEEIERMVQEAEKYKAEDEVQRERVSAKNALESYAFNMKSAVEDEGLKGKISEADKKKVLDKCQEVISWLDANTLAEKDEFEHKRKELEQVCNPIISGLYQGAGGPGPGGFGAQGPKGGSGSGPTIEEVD
T1 sequence (Q99933 72-345 partner limits assumed): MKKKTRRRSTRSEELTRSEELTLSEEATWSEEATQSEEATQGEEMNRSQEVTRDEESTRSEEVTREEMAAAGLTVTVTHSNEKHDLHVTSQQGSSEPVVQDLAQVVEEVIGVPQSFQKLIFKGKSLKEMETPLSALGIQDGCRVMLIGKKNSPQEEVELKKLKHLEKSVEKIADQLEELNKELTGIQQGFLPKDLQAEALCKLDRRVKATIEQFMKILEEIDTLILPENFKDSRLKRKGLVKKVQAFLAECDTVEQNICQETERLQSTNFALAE
T2 sequence (P0DMV8 whole entry): as the sequence (P0DMV8 whole entry) above

Which Kd (HSP72/BAG1 complex; 700 nM BAG1) does the source give for `CN(CCCC(=O)NCCCCCCNc1ncnc2c1nc(NCc1ccc3ncccc3c1)n2[C@@H]1O[C@H](COCc2ccc(C(F)(F)F)cc2)[C@@H](O)[C@H]1O)C(=O)c1ccccc1-c1c2ccc(=N)c(S(=O)(=O)O)c-2oc2c(S(=O)(=O)O)c(N)ccc12` [compound 11] here?
The Kd was 0.141 µM.

What about the “effect of BAG1 on affinity of the probe for HSP72” value (HSP72/BAG1 complex; saturating BAG1 (700 nM)) of the same compound?
The value was “maintained; also recorded: no significant change”.

What about the “Z'” value (HSP72; FP assay with HSP72) of the same compound?
The value was 0.63.

And the “assay (binding) window” value (HSP72; presence vs absence of 5 μM HSP72)?
Its value is “greater than 150 mP”.
